In US20040106545A1, “Compounds and methods for modulating cell adhesion” (priority 1996, published 2004):
“Also recorded” adds a separate entry of the source.

How the values were obtained:
N-cadherin = target: T1, N-cadherin (Gallus gallus, UniProt P10288); assay: Neurite outgrowth of mouse cerebellar neurons on N-cadherin expressing 3T3 monolayers (Example 2); format: cell-based
T1 construct: expressed in transfected cells; host or cells: 3T3 fibroblasts (monolayer)
T1 sequence (P10288 165-912): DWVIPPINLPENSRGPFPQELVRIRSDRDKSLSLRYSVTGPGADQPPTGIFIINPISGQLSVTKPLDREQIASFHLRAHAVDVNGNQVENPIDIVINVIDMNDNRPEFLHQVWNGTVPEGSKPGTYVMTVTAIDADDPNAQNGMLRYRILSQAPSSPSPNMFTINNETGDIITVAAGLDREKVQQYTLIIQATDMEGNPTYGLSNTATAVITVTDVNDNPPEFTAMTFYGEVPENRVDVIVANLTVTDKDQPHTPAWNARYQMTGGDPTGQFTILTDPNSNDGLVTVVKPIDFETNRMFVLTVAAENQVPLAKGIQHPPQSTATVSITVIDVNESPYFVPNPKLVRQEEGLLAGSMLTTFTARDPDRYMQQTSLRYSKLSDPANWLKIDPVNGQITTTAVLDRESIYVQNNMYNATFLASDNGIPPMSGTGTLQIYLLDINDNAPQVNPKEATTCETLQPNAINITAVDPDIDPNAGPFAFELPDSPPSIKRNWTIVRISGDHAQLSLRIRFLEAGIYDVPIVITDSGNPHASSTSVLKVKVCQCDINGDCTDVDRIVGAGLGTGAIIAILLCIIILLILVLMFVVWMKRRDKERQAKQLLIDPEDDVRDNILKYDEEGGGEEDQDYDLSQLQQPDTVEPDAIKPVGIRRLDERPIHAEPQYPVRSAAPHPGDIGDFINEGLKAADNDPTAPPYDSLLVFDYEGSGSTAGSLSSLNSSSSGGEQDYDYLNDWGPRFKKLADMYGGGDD
Description: Within a representative neurite outgrowth assay, neurons may be cultured on a monolayer of cells (e.g., 3T3) that express N-cadherin. […] For example, neurons may be cultured on monolayers of 3T3 cells transfected with cDNA encoding N-cadherin essentially as described by Doherty and Walsh, Curr. Op. Neurobiol. 4:49-55, 1994; Williams et al., Neuron 13:583-594, 1994; Hall et al., Cell Adhesion and Commun. 3:441-450, 1996; Doherty and Walsh, Mol. Cell. Neurosci. 8:99-111, 1994; and Safell et al., Neuron 18:231-242, 1997. Briefly, monolayers of control 3T3 fibroblasts and 3T3 fibroblasts that express N-cadherin may be established by overnight culture of 80,000 cells in individual wells of an 8-chamber well tissue culture slide. 3000 cerebellar neurons isolated from post-natal day 3 mouse brains may be cultured for 18 hours on the various monolayers in control media (SATO/2% FCS), or media supplemented with various concentrations of the modulating agent or control peptide. The cultures may then be fixed and stained for GAP43 which specifically binds to the neurons and their neurites. The length of the longest neurite on each GAP43 positive neuron may be measured by computer assisted morphometry.
Neurons were cultured on monolayers of 3T3 cells transfected with cDNA encoding N-cadherin essentially as described by Doherty and Walsh, Curr. Op. Neurobiol. 4:49-55, 1994; Williams et al., Neuron 13:583-594, 1994; Hall et al., Cell Adhesion and Commun. 3:441-450, 1996; Doherty and Walsh, Mol. Cell. Neurosci. 8:99-111, 1994; Safell et al., Neuron 18:231-242, 1997. Briefly, monolayers of control 3T3 fibroblasts and 3T3 fibroblasts that express N-cadherin were established by overnight culture of 80,000 cells in individual wells of an 8-chamber well tissue culture slide. […] The length of the longest neurite on each GAP43 positive neuron was then measured by computer assisted morphometry.

Melanoma ME115 cells = assay: Disruption of melanoma cell adhesion, pan-cadherin staining; format: cell-based, human; details: 500 μg/mL, 48 hours
Method: Melanoma ME115 cells (kindly provided by Meenhard Herlyn, Wistar Institute, Philadelphia, Pa.) were plated on glass coverslips and cultured for 24 hours in 50% keratinocyte growth medium (Clonetics, San Diego, Calif.) and 50% L15. Fresh medium containing the cyclic peptides (final concentration 500 μg/mL media) N—Ac-CHAVC-NH2 (SEQ ID NO:10) or N—Ac-CHGVC-NH2 (SEQ ID NO:11) was then added. Following 24 hours of culture in the presence of the peptides, the medium was removed and fresh medium containing the peptides was added. The cells were fixed 24 hours later with cold methanol and stored in phosphate buffered saline (PBS).
Coverslips were blocked for 1 hour in 3% ovalbumin/PBS and incubated for a further 1 hour in the presence of rabbit pan-cadherin antibody (Sigma Chemical Co., St. Louis, Mo.) diluted 1:500. Primary and secondary antibodies were diluted in PBS containing 6% normal goat serum. Following incubation in the primary antibody, coverslips were washed 3 times for 5 minutes each in PBS and incubated for 1 hour in goat anti-rabbit immunoglobulin G conjugated to fluorescein (Kiekegard and Perry, South San Francisco, Calif.) diluted 1:100. Following a further wash in PBS (3×5 minutes) coverslips were mounted in Vectashield (Vector Labs, Burlingame, Calif.) and viewed with a Zeiss infinity corrected microscope.

Row | Compound | inhibition of neurite outgrowth on 3T3 cells expressing N-cadherin (N-cadherin; 50 μg/mL) | inhibition of neurite outgrowth on 3T3 cells expressing N-cadherin (N-cadherin; 500 μg/mL, 18 hours) | cadherin staining of ME115 cells (Melanoma ME115 cells) | melanoma cell adhesion (Melanoma ME115 cells)
1 | CC(=O)N[C@H]1CSSC[C@@H](C(N)=O)NC(=O)[C@H](C(C)C)NC(=O)[C@H](C)NC(=O)[C@H](Cc2c[nH]cn2)NC1=O [N—Ac—CHAVC—NH2, N-Ac-Cys-His-Ala-Val-Cys-NH2] | significantly inhibited neurite outgrowth | completely inhibited neurite outgrowth | cadherin is localized in intracellular vesicles; also recorded: absence of cell membrane staining and the appearance of bright intracellular vesicular staining | disrupts melanoma cell adhesion
2 | CC(=O)N[C@H]1CSSC[C@@H](C(N)=O)NC(=O)[C@H](C(C)C)NC(=O)CNC(=O)[C@H](Cc2c[nH]cn2)NC1=O [N—Ac—CHGVC—NH2, reference compound] |  | had no effect on this process | displayed cadherin staining all over the cell membrane | 
